In patent US10071086B2, “1H-pyrazolo[3,4-b]pyridines and therapeutic uses thereof” (Samumed, LLC, priority 2012, dated 2018):

Tested on: Wnt pathway
Experiment: Wnt activity reporter assay (SP5 promoter-luciferase in SW480 cells)
Type: cell-based
Conditions: Homo sapiens, SP5 promoter firefly luciferase reporter, read-out: Wnt inhibition
Text: The above synthesized compounds were screened using the assay procedure for Wnt activity described below.
Reporter cell lines can be generated by stably transducing cells of cancer cell lines (e.g., colon cancer) with a lentiviral construct that include a wnt-responsive promoter driving expression of the firefly luciferase gene.
Lentiviral constructs can be made in which the SP5 promoter, a promoter having eight TCF/LEF binding sites derived from the SP5 promoter, is linked upstream of the firefly luciferase gene. The lentiviral constructs can also include a hygromycin resistance gene as a selectable marker. The SP5 promoter construct can be used to transduce SW480 cells, a colon cancer cell line having a mutated APC gene that generates a truncated APC protein, leading to de-regulated accumulation of β-catenin.
Cultured SW480 cells bearing a reporter construct can be distributed at approximately 10,000 cells per well into 96 well or 384 well plates. Compounds from a small molecule compound library can then be added to the wells in half-log dilutions using a ten micromolar top concentration. A series of control wells for each cell type receive only buffer and compound solvent. Twenty-four to forty hours after the addition of compound, reporter activity for luciferase can be assayed, for example, by addition of the BrightGlo luminescence reagent (Promega) and the Victor3 plate reader (Perkin Elmer). Readings can be normalized to DMSO only treated cells, and normalized activities can then be used in the IC50 calculations.

Point of comparison: `O=C(Nc1cncc(-c2cnc3[nH]nc(-c4nc5c(-c6cccc(F)c6)cccc5[nH]4)c3c2)c1)C1CCCCC1` [Compound 561, N-(5-(3-(4-(3-Fluorophenyl)-1H-benzo[d]imidazol-2-yl)-1H-pyrazolo[3,4-b]pyridin-5-yl)pyridin-3-yl)cyclohexanecarboxamide], IC50 143 nM. Against it:
- Fc1cccc(-c2cccc3[nH]c(-c4n[nH]c5ncc(-c6cncc(CN7CCCCC7)c6)cc45)nc23)c1 [Compound 554, 3-(4-(3-Fluorophenyl)-1H-benzo[d]imidazol-2-yl)-5-(5-(piperidin-1-ylmethyl)pyridin-3-yl)-1H-pyrazolo[3,4-b]pyridine] — within 1.5-fold, 200 nM
- CCCCC(=O)Nc1cncc(-c2cnc3[nH]nc(-c4nc5c(-c6cccc(F)c6)cccc5[nH]4)c3c2)c1 [Compound 557, N-(5-(3-(4-(3-Fluorophenyl)-1H-benzo[d]imidazol-2-yl)-1H-pyrazolo[3,4-b]pyridin-5-yl)pyridin-3-yl)pentanamide] — 2.7-fold lower, 53 nM
- O=C(Nc1cncc(-c2cnc3[nH]nc(-c4nc5c(-c6cccc(F)c6)cccc5[nH]4)c3c2)c1)C1CCCC1 [Compound 560, N-(5-(3-(4-(3-Fluorophenyl)-1H-benzo[d]imidazol-2-yl)-1H-pyrazolo[3,4-b]pyridin-5-yl)pyridin-3-yl)cyclopentanecarboxamide] — 1.6-fold lower, 90 nM
- O=C(Nc1cncc(-c2cnc3[nH]nc(-c4nc5c(-c6ccc(F)cc6)cccc5[nH]4)c3c2)c1)c1ccccc1 [Compound 573, N-(5-(3-(4-(4-Fluorophenyl)-1H-benzo[d]imidazol-2-yl)-1H-pyrazolo[3,4-b]pyridin-5-yl)pyridin-3-yl)benzamide] — 1.7-fold lower, 82 nM
- O=C(Nc1cncc(-c2cnc3[nH]nc(-c4nc5c(-c6ccc(F)cc6)cccc5[nH]4)c3c2)c1)C1CC1 [Compound 581, N-(5-(3-(4-(4-Fluorophenyl)-1H-benzo[d]imidazol-2-yl)-1H-pyrazolo[3,4-b]pyridin-5-yl)pyridin-3-yl)cyclopropanecarboxamide] — 3-fold lower, 48 nM
- Fc1ccc(-c2cccc3[nH]c(-c4n[nH]c5ncc(-c6cncc(CNCC7CCCC7)c6)cc45)nc23)cc1 [Compound 586, 1-Cyclopentyl-N-((5-(3-(4-(4-fluorophenyl)-1H-benzo[d]imidazol-2-yl)-1H-pyrazolo[3,4-b]pyridin-5-yl)pyridin-3-yl)methyl)methanamine] — 2.9-fold higher, 420 nM
- Fc1ccccc1-c1cccc2[nH]c(-c3n[nH]c4ncc(-c5cccnc5)cc34)nc12 [Compound 590, 3-(4-(2-Fluorophenyl)-1H-benzo[d]imidazol-2-yl)-5-(pyridin-3-yl)-1H-pyrazolo[3,4-b]pyridine] — 7.2-fold lower, 20 nM
- CC(C)(C)C(=O)Nc1cncc(-c2cnc3[nH]nc(-c4nc5c(-c6ccccc6F)cccc5[nH]4)c3c2)c1 [Compound 594, N-(5-(3-(4-(2-Fluorophenyl)-1H-benzo[d]imidazol-2-yl)-1H-pyrazolo[3,4-b]pyridin-5-yl)pyridin-3-yl)pivalamide] — within 1.5-fold, 120 nM
- O=C(Cc1ccccc1)Nc1cncc(-c2cnc3[nH]nc(-c4nc5c(-c6ccccc6F)cccc5[nH]4)c3c2)c1 [Compound 595, N-(5-(3-(4-(2-Fluorophenyl)-1H-benzo[d]imidazol-2-yl)-1H-pyrazolo[3,4-b]pyridin-5-yl)pyridin-3-yl)-2-phenylacetamide] — 2.5-fold higher, 354 nM
- Fc1ccccc1-c1cccc2[nH]c(-c3n[nH]c4ncc(-c5cncc(CN6CCCC6)c5)cc34)nc12 [Compound 599, 3-(4-(2-Fluorophenyl)-1H-benzo[d]imidazol-2-yl)-5-(5-(pyrrolidin-1-ylmethyl)pyridin-3-yl)-1H-pyrazolo[3,4-b]pyridine] — 1.5-fold higher, 220 nM
- CCCC(=O)Nc1cncc(-c2cnc3[nH]nc(-c4nc5c(-c6ccccc6F)cccc5[nH]4)c3c2)c1 [Compound 602, N-(5-(3-(4-(2-Fluorophenyl)-1H-benzo[d]imidazol-2-yl)-1H-pyrazolo[3,4-b]pyridin-5-yl)pyridin-3-yl)butyramide] — 7.9-fold lower, 18 nM
- O=C(Nc1cncc(-c2cnc3[nH]nc(-c4nc5c(-c6ccccc6F)cccc5[nH]4)c3c2)c1)C1CCC1 [Compound 605, N-(5-(3-(4-(2-Fluorophenyl)-1H-benzo[d]imidazol-2-yl)-1H-pyrazolo[3,4-b]pyridin-5-yl)pyridin-3-yl)cyclobutanecarboxamide] — 7.9-fold lower, 18 nM
- CN(C)c1cncc(-c2cnc3[nH]nc(-c4nc5c(-c6cccnc6)cccc5[nH]4)c3c2)c1 [Compound 616, N,N-Dimethyl-5-(3-(4-(pyridin-3-yl)-1H-benzo[d]imidazol-2-yl)-1H-pyrazolo[3,4-b]pyridin-5-yl)pyridin-3-amine] — 9.9-fold higher, 1410 nM
- CN(C)Cc1cncc(-c2cnc3[nH]nc(-c4nc5c(-c6cccnc6)cccc5[nH]4)c3c2)c1 [Compound 621, N,N-Dimethyl-1-(5-(3-(4-(pyridin-3-yl)-1H-benzo[d]imidazol-2-yl)-1H-pyrazolo[3,4-b]pyridin-5-yl)pyridin-3-yl)methanamine] — 4-fold lower, 36 nM
- Nc1cncc(-c2cnc3[nH]nc(-c4nc5c(-c6ccncc6)cccc5[nH]4)c3c2)c1 [Compound 635, 5-(3-(4-(Pyridin-4-yl)-1H-benzo[d]imidazol-2-yl)-1H-pyrazolo[3,4-b]pyridin-5-yl)pyridin-3-amine] — 4.2-fold lower, 34 nM
- Cc1ccncc1-c1cnc2[nH]nc(-c3nc4c(-c5ccncc5)cccc4[nH]3)c2c1 [Compound 637, 5-(4-Methylpyridin-3-yl)-3-(4-(pyridin-4-yl)-1H-benzo[d]imidazol-2-yl)-1H-pyrazolo[3,4-b]pyridine] — within 1.5-fold, 110 nM
- CC(C)Nc1cncc(-c2cnc3[nH]nc(-c4nc5c(-c6ccncc6)cccc5[nH]4)c3c2)c1 [Compound 643, N-Isopropyl-5-(3-(4-(pyridin-4-yl)-1H-benzo[d]imidazol-2-yl)-1H-pyrazolo[3,4-b]pyridin-5-yl)pyridin-3-amine] — 4.8-fold lower, 30 nM
- CC(C)(C)CC(=O)Nc1cncc(-c2cnc3[nH]nc(-c4nc5c(-c6ccncc6)cccc5[nH]4)c3c2)c1 [Compound 647, 3,3-Dimethyl-N-(5-(3-(4-(pyridin-4-yl)-1H-benzo[d]imidazol-2-yl)-1H-pyrazolo[3,4-b]pyridin-5-yl)pyridin-3-yl)butanamide] — 11-fold higher, 1520 nM
- c1ccc(CNCc2cncc(-c3cnc4[nH]nc(-c5nc6c(-c7ccncc7)cccc6[nH]5)c4c3)c2)cc1 [Compound 654, N-Benzyl-1-(5-(3-(4-(pyridin-4-yl)-1H-benzo[d]imidazol-2-yl)-1H-pyrazolo[3,4-b]pyridin-5-yl)pyridin-3-yl)methanamine] — 10-fold higher, 1500 nM
- FC1(F)CCN(Cc2cncc(-c3cnc4[nH]nc(-c5nc6c(-c7ccccn7)cccc6[nH]5)c4c3)c2)C1 [Compound 680, 5-(5-((3,3-Difluoropyrrolidin-1-yl)methyl)pyridin-3-yl)-3-(4-(pyridin-2-yl)-1H-benzo[d]imidazol-2-yl)-1H-pyrazolo[3,4-b]pyridine] — within 1.5-fold, 170 nM
- O=C(Nc1cncc(-c2cnc3[nH]nc(-c4nc5c(N6CCCCC6)cccc5[nH]4)c3c2)c1)c1ccccc1 [Compound 691, N-(5-(3-(4-(Piperidin-1-yl)-1H-benzo[d]imidazol-2-yl)-1H-pyrazolo[3,4-b]pyridin-5-yl)pyridin-3-yl)benzamide] — within 1.5-fold, 187 nM
- CCCCC(=O)Nc1cncc(-c2cnc3[nH]nc(-c4nc5c(N6CCCCC6)cccc5[nH]4)c3c2)c1 [Compound 698, N-(5-(3-(4-(Piperidin-1-yl)-1H-benzo[d]imidazol-2-yl)-1H-pyrazolo[3,4-b]pyridin-5-yl)pyridin-3-yl)pentanamide] — 2.1-fold higher, 300 nM
- O=C(Nc1cncc(-c2cnc3[nH]nc(-c4nc5c(N6CCCCC6)cccc5[nH]4)c3c2)c1)C1CCCC1 [Compound 701, N-(5-(3-(4-(Piperidin-1-yl)-1H-benzo[d]imidazol-2-yl)-1H-pyrazolo[3,4-b]pyridin-5-yl)pyridin-3-yl)cyclopentanecarboxamide] — 4.4-fold higher, 625 nM
- c1cc(N2CCCCC2)c2nc(-c3n[nH]c4ncc(-c5cncc(CNCC6CCCC6)c5)cc34)[nH]c2c1 [Compound 704, 1-Cyclopentyl-N-((5-(3-(4-(piperidin-1-yl)-1H-benzo[d]imidazol-2-yl)-1H-pyrazolo[3,4-b]pyridin-5-yl)pyridin-3-yl)methyl)methanamine] — 5.7-fold higher, 810 nM
- Cc1cn(-c2cccc3[nH]c(-c4n[nH]c5ncc(-c6cncc(CN(C)C)c6)cc45)nc23)cn1 [Compound 719, N,N-Dimethyl-1-(5-(3-(4-(4-methyl-1H-imidazol-1-yl)-1H-benzo[d]imidazol-2-yl)-1H-pyrazolo[3,4-b]pyridin-5-yl)pyridin-3-yl)methanamine] — within 1.5-fold, 200 nM
- Cc1cn(-c2cccc3[nH]c(-c4n[nH]c5ncc(-c6cncc(NC(=O)C7CCCCC7)c6)cc45)nc23)cn1 [Compound 728, N-(5-(3-(4-(4-Methyl-1H-imidazol-1-yl)-1H-benzo[d]imidazol-2-yl)-1H-pyrazolo[3,4-b]pyridin-5-yl)pyridin-3-yl)cyclohexanecarboxamide] — 3.7-fold lower, 39 nM
- CCNCc1cncc(-c2cnc3[nH]nc(-c4nc5c(N6CCN(C)CC6)cccc5[nH]4)c3c2)c1 [Compound 738, N-((5-(3-(4-(4-Methylpiperazin-1-yl)-1H-benzo[d]imidazol-2-yl)-1H-pyrazolo[3,4-b]pyridin-5-yl)pyridin-3-yl)methyl)ethanamine] — 3.8-fold higher, 550 nM
